Among the data in patent publication US7160900B2, “Tetrahydropyridino or piperidino heterocyclic derivatives” (Taisho Pharmaceutical Co., Ltd., priority 2000, dated 2007) are melting point values, retold here.

One may read the melting point as the temperature of the solid-liquid transition.

The structures appear in SMILES notation.

Regarding `Cc1cc(N2CC=C(CC(N)=O)CC2)c2cccc(-c3ccc(Cl)cc3Cl)c2n1` [compound 1-05, 2-{1-[8-(2,4-dichlorophenyl)-2-methylquinolin-4-yl]-1,2,3,6-tetrahydropyridin-4-yl}-acetamide], the melting point is 160 to 162 °C.
